Laboratory results as given in ChEMBL document CHEMBL3714712, “Thieno [2,3-c]pyrazoles for use as potassium channel inhibitors” (2013).

These compounds were tested against T1, Kir3.1/Kir3.4 (Rattus norvegicus, UniProt P48548+P63251) (assay: Inhibition of rat Kir3.1/Kir3.4 expressed in HEK293 cells assessed as reduction in depolarizing voltage step-induced recombinant G-protein activated inward rectifier current by whole cell patch clamp assay).
T1 sequence (P63251 whole entry): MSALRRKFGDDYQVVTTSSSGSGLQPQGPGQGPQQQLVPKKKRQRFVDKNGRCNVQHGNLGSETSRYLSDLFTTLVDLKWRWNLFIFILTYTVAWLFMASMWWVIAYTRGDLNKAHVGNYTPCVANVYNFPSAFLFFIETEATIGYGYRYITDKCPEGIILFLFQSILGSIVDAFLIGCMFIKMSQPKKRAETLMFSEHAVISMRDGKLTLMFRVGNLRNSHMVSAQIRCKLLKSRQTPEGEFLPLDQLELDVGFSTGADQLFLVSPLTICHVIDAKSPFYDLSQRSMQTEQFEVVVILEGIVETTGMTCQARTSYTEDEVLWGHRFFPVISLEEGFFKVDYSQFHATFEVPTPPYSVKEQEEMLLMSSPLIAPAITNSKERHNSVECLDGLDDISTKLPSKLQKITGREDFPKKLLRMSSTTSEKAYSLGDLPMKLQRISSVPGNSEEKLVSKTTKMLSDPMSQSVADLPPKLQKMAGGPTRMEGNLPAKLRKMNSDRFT
T1 sequence (P48548 whole entry): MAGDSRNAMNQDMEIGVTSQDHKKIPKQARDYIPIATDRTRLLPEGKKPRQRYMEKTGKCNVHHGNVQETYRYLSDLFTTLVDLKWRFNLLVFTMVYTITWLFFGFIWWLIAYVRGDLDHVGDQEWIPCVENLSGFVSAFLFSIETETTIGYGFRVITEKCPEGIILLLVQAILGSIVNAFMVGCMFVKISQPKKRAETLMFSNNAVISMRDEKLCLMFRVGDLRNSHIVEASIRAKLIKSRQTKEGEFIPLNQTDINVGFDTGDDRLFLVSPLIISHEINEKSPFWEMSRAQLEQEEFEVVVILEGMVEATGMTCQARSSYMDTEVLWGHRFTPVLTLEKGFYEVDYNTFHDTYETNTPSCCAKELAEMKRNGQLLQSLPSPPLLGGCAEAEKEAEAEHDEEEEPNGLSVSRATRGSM
Assay type: cell-based
For CNC(=O)c1sc2[nH]nc(N3CCC(COCCN4CCCC4)CC3)c2c1-c1ccccc1, the IC50 was under 0.5 µM.
With CN(C)C(=O)c1sc2[nH]nc(N3CCC(COCCN4CCCC4)CC3)c2c1-c1ccccc1 the IC50 was 0.5 µM.
c1ccc(-c2csc3[nH]nc(N4C5CCC4CC(COCCN4CCCC4)C5)c23)cc1 (stereo not given) was tested, and the IC50 was under 0.5 µM.
CN(C)C(=O)c1sc2c(c(N3CCC(COCCN4CCCC4)CC3)nn2C)c1-c1ccccc1 was tested, and the IC50 was 0.5 µM.
Compound c1ccc(-c2csc3[nH]nc(N4C5CCC4CC(NC4CCC4)C5)c23)cc1 (stereo not given) has an IC50 of under 0.5 µM.
For c1ccc(-c2csc3[nH]nc(N4CC5CC4CC5OCCN4CCCC4)c23)cc1 (stereo not given), the IC50 was under 0.5 µM.
In the case of CC(C)NC(=O)c1sc2[nH]nc(N3CCC(COCCN4CCCC4)CC3)c2c1-c1ccccc1, the IC50 is reported as under 0.5 µM.
Work on CC(=O)n1nc(N2CC3CC2CC3OCCN2CCCC2)c2c(-c3ccccc3)csc21 (stereo not given) yielded an IC50 of under 0.5 µM.
In the case of N#Cc1sc2[nH]nc(N3CCC(COCCN4CCCC4)CC3)c2c1-c1ccccc1, the IC50 is reported as under 0.5 µM.
Brc1sc2[nH]nc(N3CC4CC3CC4OCCN3CCCC3)c2c1-c1ccccc1 (stereo not given) showed an IC50 of under 0.5 µM.
c1ccc(-c2csc3[nH]nc(N4CCC(COCCN5CCCC5)C4)c23)cc1 (stereo not given) gave an IC50 of under 0.5 µM.
With Cn1nc(N2CCC(COCCN3CCCC3)CC2)c2c(-c3ccccc3)csc21 the IC50 was under 0.5 µM.
In the case of CC(=O)n1nc(N2CCC(COCCN3CCCC3)C2)c2c(-c3ccccc3)csc21 (stereo not given), the IC50 is reported as under 0.5 µM.
Compound CC(C)NC1CC2CCC(C1)N2c1n[nH]c2scc(-c3ccccc3)c12 (stereo not given) has an IC50 of 0.5 µM.
For c1ccc(-c2csc3[nH]nc(N4C5CCC4CC(OCCN4CCCC4)C5)c23)cc1 (stereo not given), the IC50 was under 0.5 µM.
Compound CC(=O)n1nc(N2CCC(COCCN3CCCC3)CC2)c2c(-c3ccccc3)csc21 has an IC50 of under 0.5 µM.
For CS(=O)(=O)n1nc(N2CCC(COCCN3CCCC3)CC2)c2c(-c3ccccc3)csc21, the IC50 was under 0.5 µM.
In the case of c1ccc(-c2csc3[nH]nc(N4CCCC(COCCN5CCCC5)C4)c23)cc1 (stereo not given), the IC50 is reported as under 0.5 µM.
In the case of c1ccc(-c2csc3[nH]nc(N4C5CCC4CC(N4CCC4)C5)c23)cc1 (stereo not given), the IC50 is reported as 0.5 µM.
CS(=O)(=O)n1nc(N2CC3CC2CC3OCCN2CCCC2)c2c(-c3ccc(F)cc3)csc21 (stereo not given) gave an IC50 of under 0.5 µM.
CC(=O)n1nc(N2C3CCC2CC(OCCN2CCCC2)C3)c2c(-c3ccccc3)csc21 (stereo not given) was tested, and the IC50 was under 0.5 µM.
Compound Fc1ccc(-c2csc3[nH]nc(N4CC5CC4CC5OCCN4CCCC4)c23)cc1 (stereo not given) has an IC50 of under 0.5 µM.
c1ccc(-c2csc3[nH]nc(N4CCC(COCCN5CCCC5)CC4)c23)cc1 was tested, and the IC50 was under 0.5 µM.
For CC(=O)n1nc(N2CCCC(COCCN3CCCC3)C2)c2c(-c3ccccc3)csc21 (stereo not given), the IC50 was under 0.5 µM.
In the case of CC(=O)n1nc(N2CC3CC2CC3OCCN2CCCC2)c2c(-c3ccc(F)cc3)csc21 (stereo not given), the IC50 is reported as under 0.5 µM.
